According to ChEMBL document CHEMBL2203054, “Synthesis and biological evaluation of a selective N- and p/q-type calcium channel agonist” (ACS Med Chem Lett, 2012):

How the values were obtained:
[1] = target: T1, Voltage-dependent N-type calcium channel subunit alpha-1B (Homo sapiens, UniProt Q00975); experiment: Agonist activity at N-type Cav2.2 channel expressed in tsA201 cell assessed as calcium current by whole-cell patch clamp method; type: functional, cell-based
Target sequence in this assay (Q00975 whole entry): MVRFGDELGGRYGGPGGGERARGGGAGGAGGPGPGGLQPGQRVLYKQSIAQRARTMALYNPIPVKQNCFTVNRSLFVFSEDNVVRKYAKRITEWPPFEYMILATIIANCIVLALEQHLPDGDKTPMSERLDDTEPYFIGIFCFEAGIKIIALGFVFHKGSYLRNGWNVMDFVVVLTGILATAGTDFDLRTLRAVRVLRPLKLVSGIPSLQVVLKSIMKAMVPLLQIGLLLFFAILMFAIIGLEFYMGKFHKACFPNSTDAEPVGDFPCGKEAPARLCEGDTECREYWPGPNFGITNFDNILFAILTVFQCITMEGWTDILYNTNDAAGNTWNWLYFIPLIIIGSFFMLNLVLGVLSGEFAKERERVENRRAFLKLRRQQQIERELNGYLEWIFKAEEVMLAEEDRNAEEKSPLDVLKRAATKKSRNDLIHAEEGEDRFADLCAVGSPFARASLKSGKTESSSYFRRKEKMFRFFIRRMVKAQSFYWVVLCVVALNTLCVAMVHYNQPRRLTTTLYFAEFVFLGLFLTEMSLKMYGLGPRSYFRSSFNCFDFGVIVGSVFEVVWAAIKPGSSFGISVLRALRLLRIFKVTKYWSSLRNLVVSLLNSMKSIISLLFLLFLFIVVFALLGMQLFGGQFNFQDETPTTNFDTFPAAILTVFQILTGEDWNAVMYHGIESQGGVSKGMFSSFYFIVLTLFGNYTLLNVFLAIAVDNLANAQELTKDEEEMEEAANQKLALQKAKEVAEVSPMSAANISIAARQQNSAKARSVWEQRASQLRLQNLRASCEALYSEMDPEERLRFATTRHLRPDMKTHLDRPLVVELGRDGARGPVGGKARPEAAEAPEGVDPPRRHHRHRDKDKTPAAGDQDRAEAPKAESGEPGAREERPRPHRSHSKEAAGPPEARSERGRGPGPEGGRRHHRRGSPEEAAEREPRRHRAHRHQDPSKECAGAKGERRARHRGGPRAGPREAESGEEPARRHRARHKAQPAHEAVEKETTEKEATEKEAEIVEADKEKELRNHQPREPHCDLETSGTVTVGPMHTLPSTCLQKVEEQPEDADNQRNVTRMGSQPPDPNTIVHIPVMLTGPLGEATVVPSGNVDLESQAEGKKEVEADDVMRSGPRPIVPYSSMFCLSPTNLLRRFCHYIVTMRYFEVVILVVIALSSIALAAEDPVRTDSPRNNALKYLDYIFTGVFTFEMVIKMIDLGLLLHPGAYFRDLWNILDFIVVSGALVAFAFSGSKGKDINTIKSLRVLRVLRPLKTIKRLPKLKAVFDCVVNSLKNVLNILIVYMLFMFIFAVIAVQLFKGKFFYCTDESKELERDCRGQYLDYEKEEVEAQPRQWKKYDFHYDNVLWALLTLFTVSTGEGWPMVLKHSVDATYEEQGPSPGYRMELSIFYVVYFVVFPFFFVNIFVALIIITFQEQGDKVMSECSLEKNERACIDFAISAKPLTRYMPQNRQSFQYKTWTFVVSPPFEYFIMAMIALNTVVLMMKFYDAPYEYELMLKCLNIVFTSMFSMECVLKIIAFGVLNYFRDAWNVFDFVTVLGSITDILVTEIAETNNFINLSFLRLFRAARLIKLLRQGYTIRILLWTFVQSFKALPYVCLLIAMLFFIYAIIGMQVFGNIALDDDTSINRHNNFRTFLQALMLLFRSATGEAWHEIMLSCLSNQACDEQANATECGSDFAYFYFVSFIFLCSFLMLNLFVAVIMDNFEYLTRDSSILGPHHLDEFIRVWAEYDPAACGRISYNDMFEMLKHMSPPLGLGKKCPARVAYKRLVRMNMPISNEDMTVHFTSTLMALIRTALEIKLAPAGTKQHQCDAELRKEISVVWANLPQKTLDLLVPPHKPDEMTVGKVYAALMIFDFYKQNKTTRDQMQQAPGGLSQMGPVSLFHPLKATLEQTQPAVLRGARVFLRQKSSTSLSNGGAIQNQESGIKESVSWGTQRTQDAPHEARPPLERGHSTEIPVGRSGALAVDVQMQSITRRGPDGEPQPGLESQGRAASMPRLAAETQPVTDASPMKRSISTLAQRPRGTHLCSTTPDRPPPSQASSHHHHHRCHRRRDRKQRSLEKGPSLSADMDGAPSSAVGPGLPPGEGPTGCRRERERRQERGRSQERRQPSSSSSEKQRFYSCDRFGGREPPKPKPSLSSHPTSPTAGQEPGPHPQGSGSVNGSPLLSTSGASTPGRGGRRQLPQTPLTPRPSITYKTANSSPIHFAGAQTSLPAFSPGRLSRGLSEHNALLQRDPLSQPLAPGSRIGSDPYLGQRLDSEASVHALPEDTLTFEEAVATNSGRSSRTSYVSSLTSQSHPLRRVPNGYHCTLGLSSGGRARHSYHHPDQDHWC

[2] = target: Cyclin-dependent kinase 2/cyclin A (Homo sapiens, UniProt P24941); experiment: Inhibition of human Cdk2/cyclin A activity; type: protein-complex assay
[3] = target: T1, Voltage-dependent N-type calcium channel subunit alpha-1B; experiment: Ratio of (R)-roscovitine EC50 to compound EC50 for N-type Cav2.2 channel
Target sequence in this assay (Q00975 whole entry, looked up): as the sequence (Q00975 whole entry) above

[4] = target: Mitogen-activated protein kinase 1 (Homo sapiens, UniProt P28482); experiment: Inhibition of human MAPK1
Chain of Mitogen-activated protein kinase 1 (P28482 whole entry): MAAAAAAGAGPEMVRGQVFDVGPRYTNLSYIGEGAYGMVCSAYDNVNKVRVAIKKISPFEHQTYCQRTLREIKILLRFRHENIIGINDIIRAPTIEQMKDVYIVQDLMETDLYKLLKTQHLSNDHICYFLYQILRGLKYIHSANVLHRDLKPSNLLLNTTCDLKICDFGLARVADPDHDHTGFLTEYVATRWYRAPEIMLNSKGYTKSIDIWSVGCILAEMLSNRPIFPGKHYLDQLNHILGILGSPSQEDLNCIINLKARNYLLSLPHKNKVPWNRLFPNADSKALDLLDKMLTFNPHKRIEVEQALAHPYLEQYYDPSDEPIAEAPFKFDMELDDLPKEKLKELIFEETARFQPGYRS

[5] = target: Myosin light chain kinase, smooth muscle (Homo sapiens, UniProt Q15746); experiment: Inhibition of human MLCK
Chain of Myosin light chain kinase, smooth muscle (Q15746 whole entry): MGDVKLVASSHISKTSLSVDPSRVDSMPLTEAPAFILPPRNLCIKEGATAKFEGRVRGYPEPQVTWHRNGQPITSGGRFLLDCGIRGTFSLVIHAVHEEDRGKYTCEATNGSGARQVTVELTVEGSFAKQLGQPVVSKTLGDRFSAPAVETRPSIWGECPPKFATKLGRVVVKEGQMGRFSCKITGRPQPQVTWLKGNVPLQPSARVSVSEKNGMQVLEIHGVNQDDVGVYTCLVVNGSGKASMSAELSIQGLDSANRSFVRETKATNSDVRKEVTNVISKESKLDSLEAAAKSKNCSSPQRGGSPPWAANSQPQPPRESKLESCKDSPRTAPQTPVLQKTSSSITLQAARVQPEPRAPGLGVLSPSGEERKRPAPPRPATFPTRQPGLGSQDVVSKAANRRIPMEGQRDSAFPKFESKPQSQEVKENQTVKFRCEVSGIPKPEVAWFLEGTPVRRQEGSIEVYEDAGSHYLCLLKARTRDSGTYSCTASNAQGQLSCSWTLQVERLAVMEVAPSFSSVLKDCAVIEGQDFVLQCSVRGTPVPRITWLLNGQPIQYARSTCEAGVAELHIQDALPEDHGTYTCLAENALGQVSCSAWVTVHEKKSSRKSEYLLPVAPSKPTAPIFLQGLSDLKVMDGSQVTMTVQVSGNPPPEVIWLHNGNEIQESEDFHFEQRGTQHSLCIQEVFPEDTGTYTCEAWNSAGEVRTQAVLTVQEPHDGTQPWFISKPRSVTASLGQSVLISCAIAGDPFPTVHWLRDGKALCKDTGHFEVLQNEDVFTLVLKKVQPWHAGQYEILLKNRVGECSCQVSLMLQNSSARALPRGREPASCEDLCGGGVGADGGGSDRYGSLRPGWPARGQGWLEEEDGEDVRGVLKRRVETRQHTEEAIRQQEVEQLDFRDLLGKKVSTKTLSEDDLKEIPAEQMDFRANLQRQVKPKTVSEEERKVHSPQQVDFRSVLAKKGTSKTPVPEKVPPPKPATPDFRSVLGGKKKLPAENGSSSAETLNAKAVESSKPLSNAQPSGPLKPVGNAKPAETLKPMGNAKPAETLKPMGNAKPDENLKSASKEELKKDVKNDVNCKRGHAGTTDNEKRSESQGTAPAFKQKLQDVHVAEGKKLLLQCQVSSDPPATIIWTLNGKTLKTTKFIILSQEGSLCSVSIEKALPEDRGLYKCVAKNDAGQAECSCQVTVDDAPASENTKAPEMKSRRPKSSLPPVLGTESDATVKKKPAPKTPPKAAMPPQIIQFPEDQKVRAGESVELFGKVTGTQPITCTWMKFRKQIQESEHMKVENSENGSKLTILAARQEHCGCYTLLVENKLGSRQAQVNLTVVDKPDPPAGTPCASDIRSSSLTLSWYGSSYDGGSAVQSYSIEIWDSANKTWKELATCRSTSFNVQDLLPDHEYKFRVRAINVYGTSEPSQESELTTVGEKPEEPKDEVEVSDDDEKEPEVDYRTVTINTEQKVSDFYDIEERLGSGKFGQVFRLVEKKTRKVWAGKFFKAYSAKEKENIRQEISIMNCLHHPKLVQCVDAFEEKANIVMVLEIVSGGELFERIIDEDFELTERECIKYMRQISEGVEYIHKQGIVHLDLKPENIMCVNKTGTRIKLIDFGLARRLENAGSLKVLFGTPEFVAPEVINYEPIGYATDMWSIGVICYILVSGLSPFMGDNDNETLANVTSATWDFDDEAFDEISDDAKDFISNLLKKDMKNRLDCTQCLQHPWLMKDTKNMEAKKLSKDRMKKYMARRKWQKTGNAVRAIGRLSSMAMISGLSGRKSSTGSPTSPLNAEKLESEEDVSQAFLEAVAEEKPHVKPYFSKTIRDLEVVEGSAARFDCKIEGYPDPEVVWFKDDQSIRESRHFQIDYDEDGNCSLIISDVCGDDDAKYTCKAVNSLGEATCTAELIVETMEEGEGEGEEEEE

[6] = target: Cyclin-dependent kinase 5/CDK5 activator 1 (Homo sapiens, UniProt Q00535); experiment: Inhibition of human Cdk5/p35 activity; type: protein-complex assay
[7] = target: Cyclin-dependent kinase 1/cyclin B1 (Homo sapiens, UniProt P06493); experiment: Inhibition of human Cdk1/cyclin B activity; type: protein-complex assay
[8] = target: Voltage-dependent L-type calcium channel subunit alpha-1D (Homo sapiens, UniProt Q01668); experiment: Agonist activity at L-type Cav1.3 expressed in tsA201 cell assessed as calcium current by whole-cell patch clamp method; type: functional, cell-based
[9] = target: Voltage-dependent P/Q-type calcium channel subunit alpha-1A (Homo sapiens, UniProt O00555); experiment: Agonist activity at P/Q-type Cav2.1 expressed in tsA201 cell assessed as calcium current by whole-cell patch clamp method; type: functional, cell-based

| SMILES | EC50 [1] | other results |
| --- | --- | --- |
| CN(C)CCNc1nc(NCc2ccccc2)c2ncn(C)c2n1 | > 1000 µM |  |
| Cn1cnc2c(NCc3ccccc3)nc(NCCO)nc21 [OLOMOUCINE] | > 1000 µM |  |
| CC[C@H](CO)Nc1nc(N(C)Cc2ccccc2)c2ncn(C(C)C)c2n1 | > 1000 µM |  |
| O=c1[nH]c2ccccc2c2[nH]c3ccc(Br)cc3c12 | > 1000 µM |  |
| CCCn1cnc2c(NCc3ccc(C(F)(F)F)cc3)nc(N[C@H](CC)CO)nc21 | > 100 µM |  |
| CCCn1cnc2c(NCc3ccc(-c4ccccc4)cc3)nc(N[C@H](CC)CO)nc21 | > 100 µM |  |
| CC(C)n1cnc2c(NCc3ccccc3)nc(NCCO)nc21 | > 1000 µM |  |
| CC[C@H](CO)Nc1nc(NC(c2ccccc2)c2ccccc2)c2ncn(C)c2n1 | > 100 µM |  |
| CC[C@H](CO)Nc1nc(NC(c2ccccc2)c2ccccc2)c2ncn(C(C)C)c2n1 | > 100 µM |  |
| O=Nc1c(-c2c(O)[nH]c3ccccc23)[nH]c2ccccc12 [INDIRUBIN-3-MONOXIME] | > 1000 µM |  |
| CCCn1cnc2c(NC(c3ccccc3)c3ccccc3)nc(N[C@H](CC)CO)nc21 | > 100 µM |  |
| CCCn1cnc2c(NCc3cccnc3)nc(N[C@H](CC)CO)nc21 | > 100 µM |  |
| Cn1cnc2nc(NCCO)nc(NCc3ccccc3)c21 | > 1000 µM |  |
| CC[C@H](CO)Nc1nc(NCC2CC2)c2ncn(C(C)C)c2n1 | > 100 µM |  |
| CC(C)n1cnc2c(NCc3ccccc3)nc(NCCCO)nc21 [BOHEMINE] | > 1000 µM |  |
| CC[C@H](CO)Nc1nc(NCc2ccc(-c3ccccc3)cc2)c2ncn(C(C)C)c2n1 | > 100 µM |  |
| CC[C@H](CO)Nc1nc(NCc2cccc(C(F)(F)F)c2)c2ncn(C(C)C)c2n1 | > 100 µM |  |
| CCCn1cnc2c(Nc3ccccc3)nc(N[C@H](CC)CO)nc21 | > 100 µM |  |
| CCCn1cnc2c(NCC3CC3)nc(N[C@H](CC)CO)nc21 | > 100 µM | EC50 [2]: 3.63 µM |
| CC[C@H](CO)Nc1nc(NCc2cccnc2)c2ncn(C(C)C)c2n1 | > 100 µM |  |
| CC[C@H](CO)Nc1nc(NCc2ccc(-c3ccccc3)cc2)c2ncn(C)c2n1 | > 100 µM |  |
| CC[C@H](CO)Nc1nc(N(Cc2ccccc2)Cc2ccccc2)c2ncn(C(C)C)c2n1 | > 1000 µM |  |
| CC[C@H](CO)Nc1nc(NCC2CC2)c2ncn(C)c2n1 | > 100 µM |  |
| CC[C@H](CO)Nc1nc(NCCc2ccccc2)c2ncn(C(C)C)c2n1 | > 100 µM |  |

The next lines start with results.

| EC50 [1] | SMILES | other results |
| --- | --- | --- |
| > 100 µM | CC[C@H](CO)Nc1nc(NCc2cccnc2)c2ncn(C)c2n1 |  |
| > 100 µM | CC[C@H](CO)Nc1nc(Nc2ccccc2)c2ncn(C)c2n1 |  |
| > 100 µM | CCCn1cnc2c(NCCc3ccccc3)nc(N[C@H](CC)CO)nc21 |  |
| 14.2 µM | CCCn1cnc2c(NCc3ccccc3)nc(N[C@H](CC)CO)nc21 |  |
| < 100 µM | CC[C@H](CO)Nc1nc(NCc2ccccc2)n2ncc(C(C)C)c2n1 |  |
| > 100 µM | CC[C@H](CO)Nc1nc(NCCc2ccccc2)c2ncn(C)c2n1 |  |
| > 70 µM | CC[C@H](CO)Nc1nc(NCc2ccccc2)c2ncn(C)c2n1 |  |
| 80 µM | CC[C@H](CO)Nc1nc(NCc2ccccc2O)c2ncn(C(C)C)c2n1 [OLOMOUCINE II] |  |
| 7.21 µM | CCCn1cnc2c(NCc3ccc(C)s3)nc(N[C@H](CC)CO)nc21 | Ratio EC50 [3]: 4; EC50 [4]: > 20 µM; EC50 [5]: > 20 µM; EC50 [6]: 3.03 µM; EC50 [7]: 20.6 µM; EC50 [8]: > 100 µM; EC50 [9]: 8.8 µM; EC50 [2]: 3.29 µM |
| 30 µM | CC[C@H](CO)Nc1nc(NCc2ccc(C)s2)c2ncn(C)c2n1 | EC50 [2]: 3.04 µM |
| 11.3 µM | CC[C@H](CO)Nc1nc(NCc2ccc(C)s2)c2ncn(C(C)C)c2n1 |  |
